# From US20240115536A1, “DUAL-ACTING PHARMACEUTICAL COMPOSITIONS BASED ON SUPERSTRUCTURES OF ANGIOTENSIN RECEPTOR ANTAGONIST/BLOCKER (ARB) AND NEUTRAL ENDOPEPTIDASE (NEP) INHIBITOR” (Novartis AG, priority 2007, published 2024)
# Like-named read-outs stand apart in the source and are kept apart here.
# Columns and labels:
# [1] = Dissolution testing, USP paddle method, pH 6.8 phosphate buffer, 50 rpm; format: physicochemical
# Description: The term “dissolution” as used herein refers to a process by which a solid substance, here the active ingredients, is dispersed in molecular form in a medium. The dissolution rate of the active ingredients of the pharmaceutical oral fixed dose combination of the invention is defined by the amount of drug substance that goes in solution per unit time under standardized conditions of liquid/solid interface, temperature and solvent composition. The dissolution rate is measured by standard methods known to the person skilled in the art, see the harmonized procedure set forth in the pharmacopeias USP <711> and EP 2.9.3 and JP. For the purposes of this invention, the test is for measuring the dissolution of the individual active ingredients is performed following pharmacopeia USP <711> at pH 6.8 using a paddle stirring element at 50 rpm (rotations per minute) or alternatively at pH 4.5 using a paddle stirring element at 75 rpm as specified. The dissolution medium is preferably a buffer, typically a phosphate buffer, especially one as described in the example “Dissolution Test”.
# The tablets of the Examples are tested for their dissolution in 900 ml of pH 6.8 phosphate buffer with paddles at 50 rpm.
# The assembly consists of the following: a covered vessel made of glass or other inert, transparent material; a motor, and a paddle formed from a blade and shaft as the stirring element. The vessel is partially immersed in a suitable water bath of any convenient size or placed in a heating jacket. The water bath or heating jacket permits holding the temperature inside the vessels at 37±0.5° during the test and keeping the bath fluid in constant, smooth motion. No part of the assembly, including the environment in which the assembly is placed, contributes significant motion, agitation, or vibration beyond that due to the smoothly rotating stirring element. Apparatus that permits observation of the specimen and stirring element during the test is has the following dimensions and capacities: the height is 160 mm to 210 mm and its inside diameter is 98 mm to 106 mm. Its sides are flanged at the top. A fitted cover may be used to retard evaporation. The shaft is positioned so that its axis is not more than 2 mm at any point from the vertical axis of the vessel and rotates smoothly without significant wobble. The vertical center line of the blade passes through the axis of the shaft so that the bottom of the blade is flush with the bottom of the shaft. The design of the paddle is as shown in USP <711>, FIG. 2. The distance of 25±2 mm between the blade and the inside bottom of the vessel is maintained during the test. The metallic or suitably inert, rigid blade and shaft comprise a single entity. A suitable two-part detachable design may be used provided the assembly remains firmly engaged during the test. The paddle blade and shaft may be coated with a suitable inert coating. The dosage unit is allowed to sink to the bottom of the vessel before rotation of the blade is started. A small, loose piece of nonreactive material such as not more than a few turns of wire helix may be attached to dosage units that would otherwise float. Other validated sinker devices may be used.
# 1L of a buffered aqueous solution, adjusted to pH 6.8±0.05 (0.05 M Phosphate buffer solution obtained by dissolving 6.805 g of potassium dihydrogen phosphate and 0.896 g of sodium hydroxide in and diluting to 1000 ml with water, and adjusting the pH to 6.80±0.05 using 0.2 M sodium hydroxide or 1 M phosphoric acid; referred hereinafter as “Dissolution Medium”) is placed in the vessel of the apparatus, the apparatus is assembled, the Dissolution Medium is equilibrated to 37±0.5°, and the thermometer is removed. 1 dosage form (e.g. tablet or capsule) is placed on the apparatus, taking care to exclude air bubbles from the surface of the dosage-form unit, and immediately the apparatus is operated at a rate of 50+2 rpm. […]
# [2] = for AUC0-24 for valsartan / Cmax for valsartan / t1/2 for valsartan / tmax for valsartan: healthy volunteers
# [3] = Measurement of pharmacokinetic parameters, ascending single dose 5, 20, 80 mg LCZ696 vs 40 mg Diovan
# Description: The study employs a two-period, parallel group, ascending single dose (5, 20, 80 mg of LCZ696 and 40 mg Diovan® (marketed formulation of valsartan), placebo controlled design with dose selection based on FDA exploratory-IND guidance. The dosages of LCZ696 are obtained by using the 5 mg and 50 mg tablets as manufactured above and employing for the 20 mg and 80 mg dose multiple tablets of 5 mg and/or 50 mg strength.
# To enable comparison of the exposure to valsartan between LCZ696 and Diovan® at different dose levels, valsartan's exposure (AUC) and Cmax values are normalized to the actual amount of anhydrous salt-free- valsartan administered (normalized by mg-equivalent). The AUC0-24 values are calculated as ng·h/ml/mg-equivalent of valsartan, and the geometric means are compared.
# [4] = Cohort A (5 mg LCZ696; 40 mg Diovan)
# [5] = Cohort B (20 mg LCZ696; 40 mg Diovan)
# [6] = Cohort C (80 mg LCZ696; 40 mg Diovan)
# [7] = Combined Cohorts A-B-C (pooled data)
# 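For AUC0-24 for valsartan in this document: randomized double-blind placebo-controlled parallel-group study with ascending single doses and 14-day daily dosing cohorts, pharmacokinetics measured in healthy volunteers.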
# 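For Cmax for valsartan in this document: randomized double-blind placebo-controlled parallel-group study with ascending single doses and 14-day daily dosing cohorts, pharmacokinetics measured in healthy volunteers.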
# 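For accumulation of all analytes in this document: randomized double-blind placebo-controlled parallel-group study with ascending single doses and 14-day daily dosing cohorts, pharmacokinetics measured in healthy volunteers.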
# 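For t1/2 for valsartan in this document: randomized double-blind placebo-controlled parallel-group study with ascending single doses and 14-day daily dosing cohorts, pharmacokinetics measured in healthy volunteers.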
structure (smiles),measurement,setting,value
"CCCCC(=O)N(Cc1ccc(-c2ccccc2-c2nn[n-]n2)cc1)[C@H](C(=O)[O-])C(C)C.CCOC(=O)[C@H](C)C[C@@H](Cc1ccc(-c2ccccc2)cc1)NC(=O)CCC(=O)[O-].[Na+].[Na+].[Na+] [LCZ696, trisodium [3-((1S,3R)-1-biphenyl-4-ylmethyl-3-ethoxycarbonyl-1-butylcarbamoyl) propionate-(S)-3′-methyl-2′-(pentanoyl{2″-(tetrazol-5-ylate)biphenyl-4′-ylmethyl}amino)butyrate]hemipentahydrate]",mean valsartan free acid released,"[1]; about 100 mg per unit dosage form, after 10 min",about 50%
same,mean valsartan free acid released,"[1]; about 100 mg per unit dosage form, after 20 min",about 85%
same,mean valsartan free acid released,"[1]; about 100 mg per unit dosage form, after 30 min",about 95%
same,mean valsartan free acid released,"[1]; about 200 mg per unit dosage form, after 10 min",about 50%
same,mean valsartan free acid released,"[1]; about 200 mg per unit dosage form, after 20 min",about 85%
same,mean valsartan free acid released,"[1]; about 200 mg per unit dosage form, after 30 min",about 95%
same,mean valsartan free acid released,"[1]; about 400 mg per unit dosage form, after 10 min",about 40%
same,mean valsartan free acid released,"[1]; about 400 mg per unit dosage form, after 20 min",about 70%
same,mean valsartan free acid released,"[1]; about 400 mg per unit dosage form, after 30 min",about 90%
same,AUC0-24 for valsartan,[2]; 50 mg daily for 14 days,6935 ng·h/mL
same,Cmax for valsartan,[2]; 50 mg daily for 14 days,1233 ng/mL
same,t1/2 for valsartan,[2]; 50 mg daily for 14 days,15.2 h
same,tmax for valsartan,[2]; 50 mg daily for 14 days,1.6 h
same,AUC0-24 for valsartan,[2]; 200 mg daily for 14 days,21079 ng·h/mL
same,Cmax for valsartan,[2]; 200 mg daily for 14 days,3990 ng/mL
same,t1/2 for valsartan,[2]; 200 mg daily for 14 days,22.1 h
same,tmax for valsartan,[2]; 200 mg daily for 14 days,1.8 h
same,AUC0-24 for valsartan,[2]; 600 mg daily for 14 days,58876 ng·h/mL
same,Cmax for valsartan,[2]; 600 mg daily for 14 days,8563 ng/mL
same,t1/2 for valsartan,[2]; 600 mg daily for 14 days,22.6 h
same,tmax for valsartan,[2]; 600 mg daily for 14 days,2.2 h
same,AUC0-24 for valsartan,[2]; 900 mg daily for 14 days,54920 ng·h/mL
same,Cmax for valsartan,[2]; 900 mg daily for 14 days,8960 ng/mL
same,t1/2 for valsartan,[2]; 900 mg daily for 14 days,15.0 h
same,tmax for valsartan,[2]; 900 mg daily for 14 days,4.9 h
same,accumulation of all analytes,[2]; 50-900 mg LCZ696 once daily for 14 days,Minimal accumulation
same,AUC0-24 for valsartan,[2]; single dose 200 mg,16970 ng·h/mL
same,Cmax for valsartan,[2]; single dose 200 mg,3309 ng/mL
same,t1/2 for valsartan,[2]; single dose 200 mg,11.7 h
same,tmax for valsartan,[2]; single dose 200 mg,1.7 h
same,AUC0-24 for valsartan,[2]; single dose 600 mg,40645 ng·h/mL
same,Cmax for valsartan,[2]; single dose 600 mg,7269 ng/mL
same,t1/2 for valsartan,[2]; single dose 600 mg,16.6 h
same,tmax for valsartan,[2]; single dose 600 mg,1.9 h
same,AUC0-24 for valsartan,[2]; single dose 900 mg,53568 ng·h/mL
same,Cmax for valsartan,[2]; single dose 900 mg,8374 ng/mL
same,t1/2 for valsartan,[2]; single dose 900 mg,14.9 h
same,tmax for valsartan,[2]; single dose 900 mg,2.2 h
same,AUC0-24 for valsartan,[2]; single dose 1200 mg,60118 ng·h/mL
same,Cmax for valsartan,[2]; single dose 1200 mg,7448 ng/mL
same,t1/2 for valsartan,[2]; single dose 1200 mg,8.9 h
same,tmax for valsartan,[2]; single dose 1200 mg,2.2 h
same,dose linearity of valsartan exposures,"[3]; 5, 20, 80 mg LCZ696 single dose",dose linear
same,"AUC0-24, dose-normalized, geometric mean, valsartan",[3]; [4],364 ng * h/ml/mg-equivalent
same,AUC0-24 ratio LCZ696/Diovan,[3]; [4],1.81
same,AUC0-inf ratio LCZ696/Diovan,[3]; [4],1.81
same,"AUC0-inf, dose-normalized, geometric mean, valsartan",[3]; [4],372 ng * h/ml/mg-equivalent
same,Cmax ratio LCZ696/Diovan,[3]; [4],2.09
same,"Cmax, dose-normalized, geometric mean, valsartan",[3]; [4],56 ng/ml/mg-equivalent
same,"AUC0-24, dose-normalized, geometric mean, valsartan",[3]; [5],280 ng * h/ml/mg-equivalent
same,AUC0-24 ratio LCZ696/Diovan,[3]; [5],1.38
same,AUC0-inf ratio LCZ696/Diovan,[3]; [5],1.38
same,"AUC0-inf, dose-normalized, geometric mean, valsartan",[3]; [5],284 ng * h/ml/mg-equivalent
same,Cmax ratio LCZ696/Diovan,[3]; [5],1.69
same,"Cmax, dose-normalized, geometric mean, valsartan",[3]; [5],44 ng/ml/mg-equivalent
same,"AUC0-24, dose-normalized, geometric mean, valsartan",[3]; [6],244 ng * h/ml/mg-equivalent
same,AUC0-24 ratio LCZ696/Diovan,[3]; [6],1.67
same,AUC0-inf ratio LCZ696/Diovan,[3]; [6],1.64
same,"AUC0-inf, dose-normalized, geometric mean, valsartan",[3]; [6],245 ng * h/ml/mg-equivalent
same,Cmax ratio LCZ696/Diovan,[3]; [6],2.1
same,"Cmax, dose-normalized, geometric mean, valsartan",[3]; [6],43 ng/ml/mg-equivalent
same,"AUC0-24, dose-normalized, geometric mean, valsartan",[3]; [7],292 ng * h/ml/mg-equivalent
same,AUC0-24 ratio LCZ696/Diovan,[3]; [7],1.61
same,AUC0-inf ratio LCZ696/Diovan,[3]; [7],1.6
same,"AUC0-inf, dose-normalized, geometric mean, valsartan",[3]; [7],296 ng * h/ml/mg-equivalent
same,Cmax ratio LCZ696/Diovan,[3]; [7],1.95
same,"Cmax, dose-normalized, geometric mean, valsartan",[3]; [7],47 ng/ml/mg-equivalent
same,tmax of valsartan free acid,[3]; oral administration,1.8 ± 0.3 h
same,enhanced oral bioavailability of valsartan free acid versus Diovan formulation,"[3]; oral, analyte valsartan free acid, listed as therapeutic agent",1.6 fold
same,tmax for valsartan (mean),"[3]; single dose, range of cohort means",1.3 to 1.8 h
same,"ratio of geometric means for AUC, LCZ696/Diovan","[3]; valsartan, dose-equivalent normalized, pooled cohorts",161%
